Laboratory results published in PubChem BioAssay AID1918946 (Molecular Pharmacology Branch, DTP, NCI, 2023).
Several values for one entry are separate records, joined by “and”; a condition that tells them apart may be missing. Identical values can stand only once.

System: 885512-296-R-J2-PDC complex spheroid viability
Experiment: Anticancer human tumor 885512-296-R-J2-PDC patient-derived breast carcinoma cell line growth inhibition
Conditions: for viability, T/C: stronger effect = lower value
In short: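 Drug combinations with the LSD1 inhibitor iadademstat tested on tumor cells co-cultured as spheroids with endothelial cells and mesenchymal stem cells. Concentrations descended in half-log increments from clinical Cmax or 10 microM.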

[1] = curve of first compound, second compound 0.1 µM
[2] = curve of first compound, second compound 0.316 µM
[3] = curve of first compound, second compound 1 µM
[4] = curve of first compound, second compound 3.16 µM
[5] = curve of first compound, second compound 10 µM
[6] = second compound 0.1 µM, first compound 0.00949 µM
[7] = second compound 0.1 µM, first compound 0.03 µM
[8] = second compound 0.1 µM, first compound 0.0949 µM
[9] = second compound 0.1 µM, first compound 0.3 µM
[10] = second compound 0.316 µM, first compound 0.00949 µM
[11] = second compound 0.316 µM, first compound 0.03 µM
[12] = second compound 0.316 µM, first compound 0.0949 µM
[13] = second compound 0.316 µM, first compound 0.3 µM
[14] = second compound 1 µM, first compound 0.00949 µM
[15] = second compound 1 µM, first compound 0.03 µM
[16] = second compound 1 µM, first compound 0.0949 µM
[17] = second compound 1 µM, first compound 0.3 µM
[18] = second compound 3.16 µM, first compound 0.00949 µM
[19] = second compound 3.16 µM, first compound 0.03 µM
[20] = second compound 3.16 µM, first compound 0.0949 µM
[21] = second compound 3.16 µM, first compound 0.3 µM
[22] = second compound 10 µM, first compound 0.00949 µM
[23] = second compound 10 µM, first compound 0.03 µM
[24] = second compound 10 µM, first compound 0.0949 µM
[25] = second compound 10 µM, first compound 0.3 µM
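Also: spheroids exposed to agents for 7 days before viability read.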

| Structure (SMILES) | IC50 [1] [nM] | IC50 [2] [nM] | IC50 [3] [nM] | IC50 [4] [nM] | IC50 [5] [nM] | viability, T/C [6] [%] | viability, T/C [7] [%] | viability, T/C [8] [%] | viability, T/C [9] [%] | viability, T/C [10] [%] | viability, T/C [11] [%] | viability, T/C [12] [%] | viability, T/C [13] [%] | viability, T/C [14] [%] | viability, T/C [15] [%] | viability, T/C [16] [%] | viability, T/C [17] [%] | viability, T/C [18] [%] | viability, T/C [19] [%] | viability, T/C [20] [%] | other results |
| --- | --- | --- | --- | --- | --- | --- | --- | --- | --- | --- | --- | --- | --- | --- | --- | --- | --- | --- | --- | --- | --- |
| CCc1c2c(nc3ccc(O)cc13)-c1cc3c(c(=O)n1C2)COC(=O)[C@]3(O)CC + NC1CC1c1ccc(-c2cccc(O)c2)cc1 | < 0.949 | < 0.949 | < 0.949 | < 0.949 | < 0.949 | 1.08 | 1.22 | 1.37 | 1.16 | 1.3 | 1.37 | 1.16 | 1.05 | 1.46 | 1.26 | 1.14 | 1.13 | 1.07 | 1.01 | 0.8 | viability, T/C (second compound 0.1 µM, first compound 0.000949 µM): 1.84%; viability, T/C (second compound 0.1 µM, first compound 0.003 µM): 1.73%; viability, T/C (second compound 0.316 µM, first compound 0.000949 µM): 2.42%; viability, T/C (second compound 0.316 µM, first compound 0.003 µM): 1.57%; viability, T/C (second compound 1 µM, first compound 0.000949 µM): 1.79%; viability, T/C (second compound 1 µM, first compound 0.003 µM): 1.95%; viability, T/C (second compound 3.16 µM, first compound 0.000949 µM): 2.13%; viability, T/C (second compound 3.16 µM, first compound 0.003 µM): 1.76%; viability, T/C [21]: 0.78%; viability, T/C (second compound 10 µM, first compound 0.000949 µM): 2.37%; viability, T/C (second compound 10 µM, first compound 0.003 µM): 2.17%; viability, T/C [22]: 1.55%; viability, T/C [23]: 0.87%; viability, T/C [24]: 0.91%; viability, T/C [25]: 0.8% |
| O=C(C=Cc1cccc(S(=O)(=O)Nc2ccccc2)c1)NO + NC1CCC(NC2CC2c2ccccc2)CC1 | 74.6 | 84.5 | 84.7 | 70.7 | 50 | 104 | 80.2 | 42.8 | 19.8 | 112 | 87.6 | 45.6 | 22.4 | 108 | 84.4 | 47.1 | 19.9 | 90.2 | 69.2 | 43.8 | viability, T/C (second compound 0.1 µM, first compound 0.949 µM): 13.6%; viability, T/C (second compound 0.1 µM, first compound 3 µM): 17.1%; viability, T/C (second compound 0.316 µM, first compound 0.949 µM): 15.7%; viability, T/C (second compound 0.316 µM, first compound 3 µM): 14.6%; viability, T/C (second compound 1 µM, first compound 0.949 µM): 12.3%; viability, T/C (second compound 1 µM, first compound 3 µM): 11.9%; viability, T/C [21]: 24.1%; viability, T/C (second compound 3.16 µM, first compound 0.949 µM): 12.7%; viability, T/C (second compound 3.16 µM, first compound 3 µM): 12.7%; viability, T/C [22]: 90.8%; viability, T/C [23]: 65.5%; viability, T/C [24]: 30.6%; viability, T/C [25]: 17.3%; viability, T/C (second compound 10 µM, first compound 0.949 µM): 8.4%; viability, T/C (second compound 10 µM, first compound 3 µM): 16.5% |
| COc1ccc([C@@H](O)c2cc(-c3ncnc4cc(N5CCOCC5)ccc34)c(F)cc2Cl)nn1 | – | – | – | – | – | – | – | – | – | – | – | – | – | – | – | – | – | – | – | – | viability, T/C (compound 0.0316 µM): 83.8% and 95.7%; viability, T/C (compound 0.1 µM): 96.8% and 82.8%; viability, T/C (compound 0.316 µM): 81.9% and 61.3%; viability, T/C (compound 1 µM): 52.8% and 50.3%; viability, T/C (compound 3.16 µM): 16.6% and 37.4%; viability, T/C (compound 10 µM): 10.3% and 9.6%; IC50 (curve of compound): 1080 nM and 980 nM |
